Data from BindingDB's records for doi:10.1111/cbdd.12445 (Konkuk University, 2015).

Biological target: Aurora kinase B (Homo sapiens, UniProt Q96GD4)
Assay: Aurora B Kinase Assay

Chain of Aurora kinase B (Q96GD4 whole entry): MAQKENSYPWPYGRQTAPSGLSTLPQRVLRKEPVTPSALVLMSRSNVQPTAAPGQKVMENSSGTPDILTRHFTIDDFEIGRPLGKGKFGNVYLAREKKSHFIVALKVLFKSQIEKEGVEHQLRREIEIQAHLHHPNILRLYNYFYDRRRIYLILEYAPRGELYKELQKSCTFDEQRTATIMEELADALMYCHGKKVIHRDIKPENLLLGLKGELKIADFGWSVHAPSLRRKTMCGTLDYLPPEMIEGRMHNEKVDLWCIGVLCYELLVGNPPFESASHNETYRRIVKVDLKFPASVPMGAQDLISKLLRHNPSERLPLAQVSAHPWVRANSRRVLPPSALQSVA

Point of comparison: `O=c1cc(-c2ccccc2)oc2cc(O)c(O)c(O)c12`, IC50 4.06 µM. Against it:
- O=c1c(O)c(-c2cc(O)c(O)c(O)c2)oc2cc(O)cc(O)c12 — within 1.5-fold, 3.98 µM
- COc1cc(-c2oc3cc(O)cc(O)c3c(=O)c2O)ccc1O — within 1.5-fold, 4.34 µM
- O=c1c(O)c(-c2ccc(O)c(O)c2)oc2c(O)c(O)cc(O)c12 — within 1.5-fold, 4.1 µM
- O=c1c(O)c(-c2ccc(O[C@@H]3O[C@H](CO)[C@@H](O)[C@H](O)[C@H]3O)c(O)c2)oc2cc(O)cc(O)c12 — 7.2-fold higher, 29.4 µM
- O=c1c(O)c(-c2ccc(O)cc2)oc2cc(O)cc(O)c12 — within 1.5-fold, 4.03 µM
- O=c1c(O)c(-c2ccc(O)cc2O)oc2cc(O)cc(O)c12 [2-(2,4-dihydroxyphenyl)-3,5,7-trihydroxychromen-4-one] — within 1.5-fold, 4.71 µM
- O=c1c(O)c(-c2ccc(O)c(O)c2)oc2cc(O)c(O)c(O)c12 [2-(3,4-dihydroxyphenyl)-3,5,6,7-tetrahydroxy-4H-chromen-4-one] — 1.5-fold lower, 2.62 µM
- O=c1c(O)c(-c2ccc(O)c(O)c2)oc2c(O[C@@H]3O[C@H](CO)[C@@H](O)[C@H](O)[C@H]3O)c(O)cc(O)c12 [2-(3,4-dihydroxyphenyl)-3,5,7-trihydroxy-8-[(2S,3R,4S,5S,6R)-3,4,5-trihydroxy-6-(hydroxymethyl)oxan-2-yl]oxychromen-4-one] — 2.7-fold higher, 11.1 µM
- O=c1c(O)c(-c2ccc(O)c(O)c2)oc2cc(O)cc(O)c12 [2-(3,4-dihydroxyphenyl)-3,5,7-trihydroxy-chromone;hydrate] — within 1.5-fold, 3.96 µM
- O=c1c(O)c(-c2ccc(O)c(O)c2)oc2cc(O)ccc12 [2-(3,4-dihydroxyphenyl)-3,7-dihydroxy-chromen-4-one] — 1.5-fold lower, 2.63 µM
- O=c1c(O[C@@H]2O[C@H](CO)[C@@H](O)[C@H](O)[C@H]2O)c(-c2ccc(O)c(O)c2)oc2cc(O)cc(O)c12 [2-(3,4-dihydroxyphenyl)-5,7-dihydroxy-3-[(2S,3R,4S,5S,6R)-3,4,5-trihydroxy-6-(hydroxymethyl)oxan-2-yl]oxychromen-4-one] — 2.6-fold higher, 10.7 µM
- O=c1cc(-c2ccc(O)c(O)c2)oc2cc(O)cc(O)c12 [2-(3,4-dihydroxyphenyl)-5,7-dihydroxy-4H-chromen-4-one] — within 1.5-fold, 3.88 µM
- COc1ccc(-c2cc(=O)c3c(OC)c(OC)c(OC)cc3o2)cc1OC [2-(3,4-dimethoxyphenyl)-5,6,7-trimethoxy-4H-chromen-4-one] — within 1.5-fold, 5.31 µM
- O=c1c(O)c(-c2ccccc2O)oc2cc(O)cc(O)c12 [3,5,7-trihydroxy-2-(2-hydroxyphenyl)chromen-4-one] — 4.4-fold higher, 17.8 µM
- COc1ccc(-c2oc3cc(O)cc(O)c3c(=O)c2O)cc1O [3,5,7-trihydroxy-2-(3-hydroxy-4-methoxyphenyl)-4H-chromen-4-one] — 1.8-fold higher, 7.39 µM
- COc1cc(-c2oc3cc(O)ccc3c(=O)c2O)ccc1O [3,7-dihydroxy-2-(4-hydroxy-3-methoxyphenyl)chromen-4-one] — within 1.5-fold, 2.85 µM
- O=c1c(O)c(-c2ccccc2)oc2ccccc12 [3-hydroxy-2-phenyl-4H-chromen-4-one] — within 1.5-fold, 4.29 µM
- O=c1cc(-c2ccc(O)cc2)oc2cc(O)c(O)c(O)c12 [5,6,7-trihydroxy-2-(4-hydroxyphenyl)-4H-chromen-4-one] — within 1.5-fold, 3.85 µM
- C[C@@H]1O[C@@H](Oc2c(-c3cc(O)c(O)c(O)c3)oc3cc(O)cc(O)c3c2=O)[C@H](O)[C@H](O)[C@H]1O [5,7-dihydroxy-3-[(2S,3R,4R,5R,6S)-3,4,5-trihydroxy-6-methyloxan-2-yl]oxy-2-(3,4,5-trihydroxyphenyl)chromen-4-one] — within 1.5-fold, 3.89 µM
- COc1cc(-c2cc(=O)c3c(O)c(OC)c(OC)c(OC)c3o2)cc(OC)c1OC [5-hydroxy-6,7,8-trimethoxy-2-(3,4,5-trimethoxyphenyl)chromen-4-one] — 11-fold higher, 42.7 µM
- O=c1cc(-c2ccc(O)cc2)oc2cc(O[C@@H]3O[C@H](CO)[C@@H](O)[C@H](O)[C@H]3O[C@@H]3OC[C@](O)(CO)[C@H]3O)cc(O)c12 [7-[(2S,3R,4S,5S,6R)-3-[(2S,3R,4R)-3,4-dihydroxy-4-(hydroxymethyl)oxolan-2-yl]oxy-4,5-dihydroxy-6-(hydroxymethyl)oxan-2-yl]oxy-5-hydroxy-2-(4-hydroxyphenyl)chromen-4-one] — 3-fold higher, 12.1 µM
- O=C(O)[C@H]1O[C@@H](Oc2cc3oc(-c4ccccc4)cc(=O)c3c(O)c2O)[C@H](O)[C@@H](O)[C@@H]1O [(2S,3S,4S,5R,6S)-6-(5,6-dihydroxy-4-oxo-2-phenyl-4H-chromen-7-yloxy)-3,4,5-trihydroxy-tetrahydro-2H-pyran-2-carboxylic acid] — 3-fold higher, 12.2 µM
- O=c1cc(-c2ccc(O)cc2)oc2cc(O)cc(O)c12 [Naringenin, 18] — within 1.5-fold, 3.96 µM
- O=c1c(O)c(-c2ccccc2)oc2cc(O)cc(O)c12 [norizalpinin] — 2.4-fold higher, 9.8 µM
